A short description of this series: gradient 5% acetonitrile 3 min, to 50% in 2 min, to 85% in 15 min, held 3 min, 100 µL/min. Particulars: column: Zorbax Extend-C18 2.1 x 50 mm; eluents: water / acetonitrile, 0.1% formic acid. An outline of the steps:
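Each retention time is based on an adduct peak selected computationally and verified by manual inspection. Measurements used HPLC–quadrupole time-of-flight mass spectrometry in positive and negative ionization mode on mixtures of ~100 pure standards. Chromatography ran on a Zorbax Extend-C18 column (2.1 × 50 mm, 1.8 μm) at 100 μL/min with water and acetonitrile, each containing 0.1% formic acid, and dead and dwell volumes of 40 μL and 900 μL.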
In the case of `CC(=O)c1cccc(C(=O)NC2(c3nc(C)no3)CCCCC2)c1`, the RP-LC retention time came to 798 s.

On to `Cc1nc(-c2csc(S(=O)(=O)N3CCC(C(=O)NCc4cccs4)CC3)c2)no1`, for which the RP-LC retention time is 823 s. For `COc1cccc(CNC(=O)C2CCCN2S(=O)(=O)c2cc3c(cc2C)NC(=O)C(C)O3)c1` (stereo not given) the value was 788 s; for `COc1ccc(-c2noc(Cn3cnc4c(cnn4-c4ccc(Cl)cc4)c3=O)n2)cc1`, 1120 s. Take `O=C(NC1CC1)C1CCCN(C(=O)c2cc(-c3ccccn3)n[nH]2)C1` (stereo not given): the RP-LC retention time stood at 577 s. For `O=C(Cc1nnc(-c2ccc3ncccc3c2)o1)N1CCN(c2ccccc2F)CC1` the value was 753 s; for `CC(C)NC(=O)c1ccc(OCC2CCCN(C(=O)c3ccccc3Cl)C2)cc1` (stereo not given), 876 s.

`CN(C)S(=O)(=O)c1ccc(-c2nnc(C(=O)NCCC3=CCCCC3)o2)cc1` had an RP-LC retention time of 941 s.

`CCC(C)(C)C(=O)O[C@H]1C[C@@H](C)C=C2C=C[C@H](C)[C@H](CC[C@@H](O)C[C@@H](O)CC(=O)O)[C@H]21`: the RP-LC retention time was determined as 1020 s. To `CCOC(=O)c1ccc(Nc2c(-c3ccc(SC)cc3)nc3cnccn23)cc1` belongs 943 s.

Take `O=C(Nc1ccc2c(c1)C(=O)N1CCCCC1CCO2)c1ccc2nsnc2c1` (stereo not given): the RP-LC retention time is 800 s.

Turning to `CCN1C=C(C(=O)OCc2cccc(C)c2)C(C)=NS1(=O)=O`, the RP-LC retention time amounted to 1030 s. To `COc1ccc(-c2cn3c(CC(=O)Nc4ccccc4Cl)csc3n2)cc1OC` belongs 728 s; to `Cc1ccc(-c2cc3n(n2)CCCN(C(=O)c2cc(CN4CCOCC4)on2)C3)o1`, 617 s; to `O=C(C1CCN(S(=O)(=O)N2CCOCC2)CC1)N1CCC(Cc2nc(C3CCOCC3)no2)CC1`, 681 s. To `O=C(O)c1cnc(NCc2ccco2)nc1-c1ccccc1` belongs 772 s; to `CCN1C(=O)CN(C(=O)C2CCCCC2)CC12CCOCC2`, 654 s; to `CCc1nc2cc(-c3noc(Cc4ccc(F)cc4)n3)ccc2o1`, 1070 s.

In turn, `Cc1c(C(=O)NCC2CC2)cnn1-c1ccc(-c2nc(C(C)(C)C)no2)cn1` came in with an RP-LC retention time of 1020 s. For `Cc1nc(C)c(C(=O)N2CCC(Oc3nc4c(C)ccc(C)c4s3)CC2)s1` the value was 1090 s; for `CN(Cc1ccccc1)C(=O)c1ccc2c(c1)N(Cc1ccccc1)C(=O)CO2`, 878 s. For `CCOC(=O)c1c(C)[nH]c(C(=O)N2CCCC(C(=O)NCCCN3CCCC3)C2)c1C` (stereo not given) the value was 589 s; for `O=C(NCc1noc(C2CCCC2)n1)c1ccccc1`, 796 s. For `O=C(Nc1ccc(S(=O)(=O)N2CCCCC2)cc1)c1cc(-c2ccccc2)on1` the value was 598 s; for `CC(C)NC(=O)CCn1c(=O)c2ccccc2n2c(=O)n(Cc3ccccc3)nc12`, 801 s.

In the case of `CCC(C(=O)NCCc1ccco1)n1c2ccccc2c2cnn(C)c(=O)c21` (stereo not given), the RP-LC retention time came to 864 s.

The compound `COCCNC(=O)C1CCCN(c2ncnc3c2oc2ccccc23)C1` (stereo not given) returned an RP-LC retention time of 633 s. For `O=C(C1CCN(S(=O)(=O)c2cc(-c3noc(C4CC4)n3)cs2)CC1)N1CCc2ccccc2C1` the value was 1020 s. For `O=C1COc2ccccc2N1Cc1nc(-c2ccc(Cl)cc2)no1` the value was 1070 s; for `CCc1nc(-c2csc(S(=O)(=O)N3CCC(C(=O)NCC4CCCO4)CC3)c2)no1` (stereo not given), 764 s; for `O=C(C1CCC1)N1CC(c2nc(-c3ccc(F)cc3)no2)C2(CCOCC2)C1` (stereo not given), 891 s. To `O=C(NCc1cscn1)C1CCN(S(=O)(=O)c2cccs2)CC1` belongs 652 s; to `CC(C)n1cc(C(=O)O)c(S(=O)(=O)N2CCCC2)n1`, 712 s. For the compound `Cc1ccc(NC(=O)CSc2nccc(N3CCN(c4cc(C)ccc4C)CC3)n2)c(Cl)c1`, the RP-LC retention time is 1190 s. For `CCc1noc(NC(C)=O)c1-c1ccc(C)c(S(=O)(=O)Nc2cc(Cl)ccc2OC)c1` the value was 872 s. To `CCn1cc(-c2nc(-c3ccc(OC)c(OC)c3)no2)c(=O)c2cc(F)ccc21` belongs 811 s.

The compound `c1cc2c(cc1OCc1cn(CC3CCCNC3)nn1)CCC2` (stereo not given) returned an RP-LC retention time of 587 s. For `CC1CCCN(C(=O)c2ccc(-n3cccn3)nc2)C1` (stereo not given) the value was 825 s; for `CCc1nnc(-c2ccc3ccn(CC(=O)NCCc4ccccc4)c3c2)o1`, 836 s. To `COc1cc(OC)c(NC(=O)N2CCCC(C)(C(=O)NCc3ccc(F)cc3)C2)cc1Cl` (stereo not given) belongs 916 s; to `CC(=O)Nc1c(C)nn(-c2ccccc2)c1N1CCC(C(=O)N2CCN(C3CCCCC3)CC2)CC1`, 597 s. To `COc1ccc(CN2CCC3(CC2)CC(C)(O)CCO3)cc1C` (stereo not given) belongs 629 s; to `CSc1nnc(-c2nn(C)c3c2CN(C(=O)c2cccc(Cl)c2)CC3)n1C`, 737 s.

`CCOC(=O)c1cccc(N2C=C(C#N)S(=O)(=O)c3ccc(Cl)cc32)c1` registered an RP-LC retention time of 996 s. To `O=C(NCc1ccc(-c2noc(-c3ccc(F)cc3F)n2)s1)C1CC1` belongs 893 s; to `COc1ccc(C2(C(N)=O)CC2)cc1`, 682 s; to `CC1CCN(C(=O)c2nnc(-c3ccc(S(=O)(=O)N4CCOCC4)cc3)o2)CC1`, 866 s.

Turning to `CCSc1ccccc1C(=O)NCCCn1cccc1`, the RP-LC retention time amounted to 791 s. `COc1ccc(N2CCN(C(=O)CC3CCN(C(=O)c4[nH]c(C)cc4C)CC3)CC2)cc1` yielded an RP-LC retention time of 739 s. In turn, `COc1cccc(-c2nc3sc(C(N)=O)c(C)n3c2NC(C)(C)C)c1` returned an RP-LC retention time of 743 s. For `C=CCN1C(=O)COc2ccc(-c3csc(NC(=O)CC(C)C)n3)cc21` the value was 954 s; for `Cc1ccc(Nc2c(-c3ccc(N4CCOCC4)cc3)nc3ccc(Cl)cn23)cc1`, 777 s; for `COc1ccc(Cl)cc1NC(=O)N1CCN(CCn2cnc3cccnc32)CC1`, 625 s. For `O=C(O)c1cc(NS(=O)(=O)c2ccccc2)ccc1N1CCCC(CN2CCCC2)C1` (stereo not given) the value was 927 s; for `CCc1ccc(NC2CC(=O)N(c3ccc(OC)cc3OC)C2=O)cc1` (stereo not given), 887 s; for `O=C(NC1CCN(Cc2ccccc2)CC1)c1ccc(I)cc1`, 727 s. For `COc1ccc(-c2onc(C)c2C)cc1S(=O)(=O)N1CCN(c2ccccn2)CC1` the value was 683 s. Take `CN(CCNC(=O)C1CCCN(c2nn3c(=O)c4c(nc3s2)CCCC4)C1)Cc1ccccc1` (stereo not given): the RP-LC retention time came out at 624 s. For `CC(NC(=O)C1CCN(C(=O)N2CCOc3ccc(Cl)cc32)CC1)c1ccccc1` (stereo not given) the value was 906 s; for `CC1(C)C(=O)N(c2ccc(C#N)c(C(F)(F)F)c2)C(=O)N1CCCCO`, 888 s. For `COc1ccc(-n2cc(C(=O)OCCc3ccccn3)c3ccccc3c2=O)cc1` the value was 714 s; for `CCC(=O)N(CC(=O)N(Cc1ccc2c(c1)OCO2)Cc1sccc1C)CC1CCCO1` (stereo not given), 864 s; for `CCOC(=O)c1noc2ncnc(Nc3cc(C)cc(C)c3)c12`, 1060 s. To `CCOc1ccc(NC(=O)C2(C)CCCCC(=O)N2)cc1` (stereo not given) belongs 690 s; to `O=C(CN(C(=O)c1ccc(F)c(F)c1)C1CCCCC1)N1CCNCC1`, 635 s; to `CC(C)n1cnc(S(=O)(=O)N2CCCC(C(=O)Nc3cccc(CN4CCCC4)c3)C2)c1` (stereo not given), 627 s. The compound `CCc1nn(CC)c(=O)c2cc(S(=O)(=O)NCc3cccc(Cl)c3)cn12` had an RP-LC retention time of 982 s.

With `Cc1nn2c(CNC(=O)c3cc(F)cc(F)c3)c(C)nc2s1`, the RP-LC retention time came to 651 s. Regarding `Cc1ccc(NC(=O)N2CC(c3nc(C)no3)C3(CCOCC3)C2)cc1` (stereo not given), the RP-LC retention time was found to be 716 s.

In turn, `CCc1ccccc1N1C(=O)CN(S(=O)(=O)CC)CC1(C)C(=O)NC1CCCCCC1` (stereo not given) yielded an RP-LC retention time of 957 s. For `Cn1cc(-c2ccc(Cl)cc2)cc1C(=O)NCc1ccco1` the value was 1020 s; for `C=CCn1c(C)c(CC(=O)NCCOC)c(=O)n2nc(-c3ccc(C)cc3)nc12`, 732 s. For `COc1ccc2c(CCNC(=O)CCc3ccccc3)c[nH]c2c1` the value was 796 s. Compound `COCCn1cc(CC(=O)NC(C)C)c2cccnc21` had an RP-LC retention time of 601 s. For `O=C(CN1CCN(Cc2ccccc2F)C1=O)NCc1ccc(F)cc1` the value was 808 s; for `CCCCS(=O)(=O)N1CCC(F)(c2nc(-c3ccccc3)no2)CC1`, 1080 s. The compound `CC(C)(C)OC(=O)COc1cc(O)c2c(=O)cc(-c3ccccc3)oc2c1` registered an RP-LC retention time of 1210 s.

Turning to `Cc1nc2cccnc2n1CCN1CCN(C(=O)Nc2cccc(Cl)c2)CC1`, the RP-LC retention time came out at 604 s. For `CN1c2cc(F)ccc2C(=O)NC12CCN(C(=O)NCc1ccc(F)cc1)CC2` the value was 754 s; for `Cc1ccnc(N2CCCC(C(=O)NCC3CCN(Cc4cccc(F)c4)CC3)C2)n1` (stereo not given), 579 s.

These data come from the METLIN SMRT retention time set (Domingo-Almenara et al. 2019).
